According to US20160193278A1, “METHODS AND COMPOSITIONS FOR PREVENTING OR TREATING LEBER'S HEREDITARY OPTIC NEUROPATHY” (STEALTH BIOTHERAPEUTICS CORP, priority 2013, published 2016):
Where no end group is shown, it is not given here. [ ]: non-standard residue; d: D form.

Columns and labels:
[1] = system: several mammalian cell types; details: cited from earlier work
[2] = system: quails; details: group with high zeaxanthin concentrations; cited from earlier work
[3] = system: murine model of LHON (ND6 P25L mutation); experiment: Prevention of LHON in ND6 P25L mouse model (Example 1); format: in vivo; details: ND6 P25L mice
[4] = system: murine model of LHON (ND6 P25L mutation); experiment: Treatment of LHON in ND6 P25L mouse model (Example 2); format: in vivo; details: ND6 P25L mice
[5] = system: human subjects at risk of having, suspected of having, or diagnosed as having LHON; experiment: Prevention and treatment of LHON in human subjects (Example 3); format: in vivo
Description: Human subjects at risk of having, suspected of having, or diagnosed as having LHON are administered a therapeutically effective amount of an aromatic-cationic peptide of the present technology, such as D-Arg-2′,6′-Dmt-Lys-Phe-NH2, alone or in conjunction with one or more additional therapeutic agents, on a therapeutic schedule appropriate for the prophylactic/therapeutic needs of the individual.
LHON patients are administered 1-10 μg D-Arg-2′,6′-Dmt-Lys-Phe-NH2 or saline vehicle subcutaneously once daily for 12 months. In another treatment group, LHON patients receive 1 drop of 1%, 3%, or 5% D-Arg-2′,6′-Dmt-Lys-Phe-NH2 ophthalmic solution or saline vehicle in both eyes three times per day for 12 months. Subjects are assessed periodically for signs and symptoms associated with LHON according to one or more criteria described herein.

[6] = system: LHON cybrid cells (11778/ND4, 3460/ND1, 14484/ND6); experiment: ATP synthesis rate in LHON cybrids (Example 4); format: cell-based, human; details: 1-10 μg, compared to untreated LHON cybrid cells
From the text: (§1) Cybrid cell lines are constructed using enucleated fibroblasts from a control individual (i.e., negative for LHON) and 3 unrelated probands with LHON as mitochondria donors. One control cybrid cell line and three LHON cybrid cell lines, one for each of the most common pathogenic mutations found in LHON, i.e., mutations at positions 11778/ND4, 3460/ND1, and 14484/ND6 of mtDNA, are produced.
The mitochondrial donor cytoplast is fused with the osteosarcoma (143B.TK-)-derived 206 cell line (rho^0 206 cell line). All fibroblast cell lines are established from skin biopsy samples or from umbilical cord specimens after having obtained the informed consent of LHON and control patients. […]
(§2) 1 ml of each cybrid cell line at 5×10^6 cells/ml is individually plated in tissue culture plates with growth media. […] After incubation for 1 hour at 37° C., the ATP synthesis rate and cellular respiration are measured.
The ATP synthesis rate is assayed by permeabilizing the cells with digitonin according to the method described by Ouhabi et al., Anal Biochem., 263: 169-175 (1998). […] The ATP content is measured using the luciferin-luciferase chemiluminescent method, e.g., described in Stanley et al., Anal Biochem., 29: 381-392 (1969).

[7] = system: LHON cybrid cells (11778/ND4, 3460/ND1, 14484/ND6); experiment: Respiratory rate of digitonin-permeabilized LHON cybrids (Example 4); format: cell-based, human; details: 1-10 μg, compared to untreated LHON cybrid cells
From the text: as §1
The mitochondrial donor cytoplast is fused with the osteosarcoma (143B.TK-)-derived 206 cell line (rho^0 206 cell line). All fibroblast cell lines are established from skin biopsy samples or from umbilical cord specimens after having obtained the informed consent of LHON and control patients. Cell fusions of fibroblast-derived cytoplasts (enucleated fibroblasts) with the rho^0 206 cells are performed using the protocol, e.g., described in King et al., Science, 246: 500-03 (1989). […]
as §2
Respiratory rates of digitonin-permeabilized cell samples are measured at 30° C. using a Clark-type oxygen electrode as previously described by Aicardi et al., Biochem Pharmacol., 31:3703-3705 (1982). The respiratory control ratio (RCR) is evaluated using glutamate-malate as a substrate.

[8] = biological target: mu-opioid receptor (Homo sapiens, UniProt P35372); details: cited from earlier work
[9] = system: reactive oxygen species (ROS) production; details: known in the art; demonstrated in U.S. Pat. Nos. 7,550,439 and 7,576,061; cited from earlier work
[10] = system: caspase activation and apoptosis; details: known in the art; cited from earlier work
[11] = system: brain mitochondrial H2O2 production; experiment: Brain mitochondrial / synaptosome H2O2 production with rotenone; format: biochemical, mouse; details: for decrease of the rate of generation of H2O2 during RET conditions: succinate plus oligomycin
[12] = system: excessive production of reactive oxygen species; details: cited from earlier work
[13] = system: LHON patients; details: cited from earlier work
[14] = system: LHON patients; details: 900 mg/d for 24 weeks, vs placebo; preliminary press release; cited from earlier work
[15] = once daily from 0-14 months of age
[16] = once daily from 14-24 months of age

Chain of mu-opioid receptor (P35372 whole entry, species assumed): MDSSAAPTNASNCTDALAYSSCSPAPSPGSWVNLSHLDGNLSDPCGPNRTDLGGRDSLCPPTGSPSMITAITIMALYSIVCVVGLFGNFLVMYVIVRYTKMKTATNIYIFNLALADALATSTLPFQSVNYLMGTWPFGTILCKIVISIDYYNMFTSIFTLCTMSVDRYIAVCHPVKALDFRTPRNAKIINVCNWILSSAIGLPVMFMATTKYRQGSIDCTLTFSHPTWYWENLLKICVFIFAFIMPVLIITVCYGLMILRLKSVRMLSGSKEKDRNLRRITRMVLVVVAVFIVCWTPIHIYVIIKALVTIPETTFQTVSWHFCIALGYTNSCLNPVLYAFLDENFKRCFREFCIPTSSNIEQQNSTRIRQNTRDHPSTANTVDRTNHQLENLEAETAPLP

Molecule: 2′,6′-Dmt-D-Arg-Phe-Lys-NH2
- penetration of the plasma membrane [1]: readily penetrates the plasma membrane of several mammalian cell types in an energy-independent manner

Molecule: CC1=C(/C=C/C(C)=C/C=C/C(C)=C/C=C/C=C(C)/C=C/C=C(C)/C=C/C2=C(C)C[C@@H](O)CC2(C)C)C(C)(C)C[C@H](O)C1 [zeaxanthin]
- light damage of the retina (apoptotic photoreceptor cells) [2]: minimal damage

Molecule: D-Arg-2′,6′-Dmt-Lys-Phe-NH2
- RGC axonal swelling and preferential loss of smallest fibers [3, 15]: prevent the onset of, delay the onset of, or reduce the severity of these effects
- abnormal mitochondrial morphology and proliferation in RGC axons [3, 15]: prevent the onset of, delay the onset of, or reduce the severity of these effects
- altered liver mitochondria complex I activity [3, 15]: prevent the onset of, delay the onset of, or reduce the severity of these effects
- effects of the ND6 P25L mutation; LHON and its symptoms [3, 15]: prevent the onset of, delay the onset of, and/or reduce the severity (e.g., ameliorate) of the effects of the ND6 P25L mutation
- forward / reverse electron flow ROS production in liver mitochondria [3, 15]: prevent the onset of, delay the onset of, or reduce the severity of these effects
- reduced complex I activity and altered ROS production in synaptosomes [3, 15]: prevent the onset of, delay the onset of, or reduce the severity of these effects
- reduced retinal response (electroretinogram deficits) [3, 15]: prevent the onset of, delay the onset of, or reduce the severity of (e.g. ameliorate) these effects
- effect of combination compared to any individual therapeutic agent alone ([3]; in combination with one or more additional therapeutic agents, prevention): synergistic effects
- RGC axonal swelling and preferential loss of smallest fibers [4, 16]: reduce or eliminate the effects of the ND6 P25L mutation
- abnormal mitochondrial morphology and proliferation in RGC axons [4, 16]: reduce or eliminate the effects of the ND6 P25L mutation
- altered liver mitochondria complex I activity [4, 16]: reduce or eliminate the effects of the ND6 P25L mutation
- forward / reverse electron flow ROS production in liver mitochondria [4, 16]: reduce or eliminate the effects of the ND6 P25L mutation
- reduced complex I activity and altered ROS production in synaptosomes [4, 16]: reduce or eliminate these effects of the ND6 P25L mutation
- reduced retinal response (electroretinogram deficits) [4, 16]: reduce or eliminate the effects of the ND6 P25L mutation
- effect of combination compared to any individual therapeutic agent alone ([4]; in combination with one or more additional therapeutic agents, treatment): synergistic effects
- symptoms of LHON ([5]; human subjects at risk of, suspected of or diagnosed as having LHON): prevent the onset of, delay the onset of, or reduce the severity of the symptoms of LHON
- effect of combination compared to any individual therapeutic agent alone ([5]; in combination with one or more additional therapeutic agents, human subjects): synergistic effects
- ATP synthesis rate [6]: greater ATP synthesis rate
- respiratory rate [7]: higher respiratory rate
- mu-opioid receptor agonist activity [8]: does not have mu-opioid receptor agonist activity
- anti-oxidant properties [9]: possess anti-oxidant properties
- caspase activation and apoptosis [10]: capacity to inhibit caspase activation and apoptosis

Molecule: C=C(C)[C@H]1Cc2c(ccc3c2O[C@@H]2COc4cc(OC)c(OC)cc4[C@@H]2C3=O)O1 [rotenone]
- decrease of the rate of generation of H2O2 during RET conditions ([11]; ND6 P25L mice): approximately 59%
- increase of the rate of H2O2 production during forward electron transfer ([11]; ND6 P25L synaptosomes): ~2.7 fold
- decrease of the rate of generation of H2O2 during RET conditions ([11]; wild-type animals): approximately 79%
- increase of the rate of H2O2 production during forward electron transfer ([11]; wild-type synaptosomes): ~2.3 fold

Molecule: COC1=C(OC)C(=O)C(C/C=C(\C)CC/C=C(\C)CC/C=C(\C)CC/C=C(\C)CC/C=C(\C)CC/C=C(\C)CC/C=C(\C)CC/C=C(\C)CC/C=C(\C)CCC=C(C)C)=C(C)C1=O [coenzyme Q-10]
- protective effects in vitro [12]: modest protective effects

Molecule: N[C@@H](CCC(=O)N[C@@H](CS)C(=O)NCC(=O)O)C(=O)O [glutathione]
- protective effects in vitro [12]: modest protective effects

Molecule: COC1=C(OC)C(=O)C(CCCCCCCCCCO)=C(C)C1=O [idebenone]
- diameter of the central scotomas after treatment ([13]; one 11778/ND4 LHON patient, from about 20 degrees): less than 5 degrees
- recovery of visual function ([13]; seven LHON patients, about 450 mg/d): recovery of visual acuity, color vision, and visual fields
- final visual acuity [14]: better final visual acuity than the placebo group

Molecule: F[dR]FK-NH2
- mu-opioid receptor agonist activity [8]: does not have mu-opioid receptor agonist activity

Molecule: Cc1c(C)c2c(c(C)c1O)CCC(C)(C(=O)O)O2 (stereo not drawn) [Trolox]
- protective effects in vitro [12]: modest protective effects

Molecule: Tyr-D-Arg-Phe-Lys-NH2
- mu-opioid receptor agonist activity [8]: has mu-opioid receptor agonist activity
